# Test results taken from patent US20150344457A1, “METHODS OF INHIBITING PRMT5” (EPIZYME, INC., priority 2012, published 2015).
# Molecular target: T1, PRMT5/MEP50 (Homo sapiens, UniProt O14744)
# T1 construct: Expressed full-length human Flag-PRMT5/6His-MeP50 protein complex was purified; made in house; host or cells: Spodoptera frugiperda (SF9) insect cells, baculovirus (pDEST8)
# Test: PRMT5 Biochemical Assay (PRMT5/MEP50 enzyme assay on peptide substrate, 3H-SAM Flashplate)
# Conditions: PRMT5 biochemical assay, Table C-2; read-out: Biochemical IC50
# Description: S-adenosylmethionine (SAM), S-adenosylhomocysteine (SAH), bicine, KCl, Tween20, dimethylsulfoxide (DMSO), bovine skin gelatin (BSG), and Tris(2-carboxyethyl)phosphine hydrochloride solution (TCEP) were purchased from Sigma-Aldrich at the highest level of purity possible. ^3H-SAM was purchase from American Radiolabeled Chemicals with a specific activity of 80 Ci/mmol 384-well streptavidin Flashplates were purchased from PerkinElmer.
# Peptide representative of human histone H4 residues 1-15 was synthesized with a C-terminal linker-affinity tag motif and a C-terminal amide cap by 21st Century Biochemicals. […] The sequence was Ac-[…][K-Biot]-amide (SEQ ID NO.:3).
# Full-length human MEP50 (NM_024102) clone was amplified from a human testis cDNA library incorporating a 5′ sequence encoding a 6-histidine tag (MHHHHHH) (SEQ ID NO.:5) fused directly to Arg 2 of MEP50. The amplified genes were sublconed into pENTR/D/TEV (Life Technologies) and subsequently transferred by Gateway™ attL×attR recombination to pDEST8 baculvirus expression vector (Life Technologies).
# Recombinant baculovirus and Baculovirus-Infected Insect Cells (BIIC) were generated according to Bac-to-Bac kit instructions (Life Technologies) and Wasilko, 2006, respectively. Protein over-expression was accomplished by infecting exponentially growing Spodoptera frugiperda (SF9) cell culture at 1.2×10^6 cell/ml with a 5000 fold dilution of BIIC stock. Infections were carried out at 27° C. for 72 hours, harvested by centrifugation, and stored at −80° C. for purification.
# Flag-PRMT5/6His-MeP50 was eluted with 300 mM Imidazole in the same buffer. […] Reference: Wasilko, D. J. and S. E. Lee: “TIPS: titerless infected-cells preservation and scale-up” Bioprocess J., 5 (2006), pp. 29-32.
# General Procedure for PRMT5/MEP50 Enzyme Assays on Peptide Substrates.
# The assays were all performed in a buffer consisting of 20 mM Bicine (pH=7.6), 1 mM TCEP, 0.005% BSG, and 0.002% Tween20, prepared on the day of use. Compounds in 100% DMSO (1 ul) were spotted into a polypropylene 384-well V-bottom plates (Greiner) using a Platemate Plus outfitted with a 384-channel head (Thermo Scientific). DMSO (1 ul) was added to Columns 11, 12, 23, 24, rows A-H for the maximum signal control and 1 ul of SAH, a known product and inhibitor of PRMT5/MEP50, was added to columns 11, 12, 23, 24, rows I-P for the minimum signal control. A cocktail (40 ul) containing the PRMT5/MEP50 enzyme and the peptide was added by Multidrop Combi (Thermo-Fisher). The compounds were allowed to incubate with PRMT5/MEP50 for 30 min at 25 degrees Celsius, then a cocktail (10 ul) containing ^3H-SAM was added to initiate the reaction (final volume=51 ul). The final concentrations of the components were as follows: PRMT5/MEP50 was 4 nM, ^3H-SAM was 75 nM, peptide was 40 nM, SAH in the minimum signal control wells was 100 uM, and the DMSO concentration was 1%. The assays were stopped by the addition of non-radioactive SAM (10 ul) to a final concentration of 600 uM, which dilutes the ^3H-SAM to a level where its incorporation into the peptide substrate is no longer detectable. 50 ul of the reaction in the 384-well polypropylene plate was then transferred to a 384-well Flashplate and the biotinylated peptides were allowed to bind to the streptavidin surface for at least 1 hour before being washed three times with 0.1% Tween20 in a Biotek ELx405 plate washer. The plates were then read in a PerkinElmer TopCount plate reader to measure the quantity of ^3H-labeled peptide bound to the Flashplate surface, measured as disintegrations per minute (dpm) or alternatively, referred to as counts per minute (cpm).
# where dpm=disintegrations per minute, cmpd=signal in assay well, and min and max are the respective minimum and maximum signal controls.
# where top and bottom are the normally allowed to float, but may be fixed at 100 or 0 respectively in a 3-parameter fit.
# T1 sequence (O14744 with tags, fused parts or gaps): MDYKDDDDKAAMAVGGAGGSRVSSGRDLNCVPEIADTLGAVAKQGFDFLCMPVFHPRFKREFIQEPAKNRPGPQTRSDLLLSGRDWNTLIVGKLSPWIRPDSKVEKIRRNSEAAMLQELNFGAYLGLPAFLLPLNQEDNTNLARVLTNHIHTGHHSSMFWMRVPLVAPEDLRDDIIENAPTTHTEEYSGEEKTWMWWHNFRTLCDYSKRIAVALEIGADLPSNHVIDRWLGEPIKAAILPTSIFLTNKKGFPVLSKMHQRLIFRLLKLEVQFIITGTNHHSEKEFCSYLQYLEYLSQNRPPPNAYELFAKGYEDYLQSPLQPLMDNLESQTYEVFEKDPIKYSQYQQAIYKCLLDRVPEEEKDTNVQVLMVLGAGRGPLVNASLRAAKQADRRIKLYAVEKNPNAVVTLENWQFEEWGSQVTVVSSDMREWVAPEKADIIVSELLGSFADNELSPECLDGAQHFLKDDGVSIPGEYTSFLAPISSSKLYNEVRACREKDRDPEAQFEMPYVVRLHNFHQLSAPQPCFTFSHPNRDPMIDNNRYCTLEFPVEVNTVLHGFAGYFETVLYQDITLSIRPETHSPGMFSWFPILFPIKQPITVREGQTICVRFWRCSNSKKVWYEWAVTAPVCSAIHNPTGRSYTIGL
# T1 sequence (Q9BQA1 with tags, fused parts or gaps partner limits assumed): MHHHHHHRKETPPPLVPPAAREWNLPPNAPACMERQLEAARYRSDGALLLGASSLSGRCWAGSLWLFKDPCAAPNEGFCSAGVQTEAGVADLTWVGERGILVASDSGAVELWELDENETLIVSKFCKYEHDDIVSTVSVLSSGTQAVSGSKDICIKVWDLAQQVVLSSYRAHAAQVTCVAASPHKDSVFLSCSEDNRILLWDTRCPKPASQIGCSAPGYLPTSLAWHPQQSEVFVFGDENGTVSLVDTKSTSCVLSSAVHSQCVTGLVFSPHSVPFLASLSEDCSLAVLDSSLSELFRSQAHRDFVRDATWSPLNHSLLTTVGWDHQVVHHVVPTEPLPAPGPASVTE
row,IC50,Structure (SMILES)
1,101 to 1000 nM,O=C1Cc2ccccc2N1CC(O)CN1CCc2ccccc2C1 (stereo not shown) [Compound C1]
2,10000 to 50000 nM,O=c1cccc(CC(O)CN2CCc3ccccc3C2)[nH]1 (stereo not shown) [Compound C2]
3,10000 to 50000 nM,Cc1cccc(N2CCN(CC(O)CN3CCc4ccccc4C3)C(=O)C2)c1 (stereo not shown) [Compound C3]
4,< 100 nM,O=C1CN(c2cccc3cccnc23)CCN1CC(O)CN1CCc2ccccc2C1 (stereo not shown) [Compound C4]
5,< 100 nM,O=C1CN(c2cccc(Cl)c2)CCN1CC(O)CN1CCc2ccccc2C1 (stereo not shown) [Compound C5]
6,< 100 nM,O=C1CN(c2cccc(F)c2)CCN1CC(O)CN1CCc2ccccc2C1 (stereo not shown) [Compound C6]
7,< 100 nM,O=C1CN(c2ccc(Cl)cc2)CCN1CC(O)CN1CCc2ccccc2C1 (stereo not shown) [Compound C7]
8,< 100 nM,O=C1CN(c2cncc(N3CCOCC3)c2)CCN1CC(O)CN1CCc2ccccc2C1 (stereo not shown) [Compound C8]
9,101 to 1000 nM,O=C1CN(c2ccccc2Cl)CCN1CC(O)CN1CCc2ccccc2C1 (stereo not shown) [Compound C9]
10,< 100 nM,O=C1CN(c2cccc(N3CCOCC3)c2)CCN1CC(O)CN1CCc2ccccc2C1 (stereo not shown) [Compound C12]
11,101 to 1000 nM,Cc1ccc(N2CCN(CC(O)CN3CCc4ccccc4C3)C(=O)C2)cc1 (stereo not shown) [Compound C15]
12,1000 to 10000 nM,O=C1CC(c2ccccc2)CCN1C[C@H](O)CN1CCc2ccccc2C1 (stereo partly shown) [Compound C16]
13,1000 to 10000 nM,O=C1CC(c2ccccc2)CCN1C[C@@H](O)CN1CCc2ccccc2C1 (stereo partly shown) [Compound C17]
14,1000 to 10000 nM,O=c1cc(Nc2ccccc2)ccn1C[C@H](O)CN1CCc2ccccc2C1 [Compound C18]
15,101 to 1000 nM,O=c1cc(Nc2ccccc2)ccn1C[C@H](O)CN1CCc2ccccc2C1 [Compound C19]
16,101 to 1000 nM,O=C1CN(c2ccc(CO)cc2)CCN1CC(O)CN1CCc2ccccc2C1 (stereo not shown) [Compound C20]
17,1000 to 10000 nM,CC(=O)N1CCN(CC(O)CN2CCc3ccccc3C2)C(=O)C1 (stereo not shown) [Compound C21]
18,1000 to 10000 nM,CS(=O)(=O)N1CCN(CC(O)CN2CCc3ccccc3C2)C(=O)C1 (stereo not shown) [Compound C22]
19,1000 to 10000 nM,O=C1CN(C2CCOCC2)CCN1CC(O)CN1CCc2ccccc2C1 (stereo not shown) [Compound C23]
20,1000 to 10000 nM,O=C1CN(Cc2ccccc2)CCN1CC(O)CN1CCc2ccccc2C1 (stereo not shown) [Compound C24]
21,1000 to 10000 nM,O=C1CN(Cc2ccccn2)CCN1CC(O)CN1CCc2ccccc2C1 (stereo not shown) [Compound C25]
22,1000 to 10000 nM,O=C1CN(Cc2cccnc2)CCN1CC(O)CN1CCc2ccccc2C1 (stereo not shown) [Compound C26]
23,> 50000 nM,CN1CCN(CC(O)CN2CCc3ccccc3C2)C(=O)C1 (stereo not shown) [Compound C27]
24,1000 to 10000 nM,O=C1COCCN1CC(O)CN1CCc2ccccc2C1 (stereo not shown) [Compound C28]
25,101 to 1000 nM,CN(C)c1ccccc1N1CCN(C[C@H](O)CN2CCc3ccccc3C2)C(=O)C1 [Compound C29]
26,1000 to 10000 nM,CN(C)c1ccc(N2CCN(C[C@H](O)CN3CCc4ccccc4C3)C(=O)C2)cc1 [Compound C30]
27,101 to 1000 nM,O=C1COc2ccccc2N1CC(O)CN1CCc2ccccc2C1 (stereo not shown) [Compound C31]
28,> 10000 nM,O=C(NC1CCOCC1)C1CC(=O)N(CC(O)CN2CCc3ccccc3C2)C1 (stereo not shown) [Compound C32]

# Same assay, conditions: Table B-2; PRMT5/MEP50 4 nM, 3H-SAM 75 nM, peptide 40 nM; read-out: Biochemical IC50
row,IC50,Structure (SMILES)
1,< 100 nM,O=C(NCC(O)CN1CCc2ccccc2C1)c1cccc(CN2CCNCC2)c1 (stereo not shown) [Compound B29.]
2,< 100 nM,CN1CCN(Cc2cccc(C(=O)NCC(O)CN3CCc4ccccc4C3)c2)CC1 (stereo not shown) [Compound B30.]
3,101 to 1000 nM,CS(=O)(=O)Nc1ccc(C(=O)NCC(O)CN2CCc3ccccc3C2)cc1 (stereo not shown) [Compound B31.]
4,101 to 1000 nM,NS(=O)(=O)c1cccc(C(=O)NCC(O)CN2CCc3ccccc3C2)c1 (stereo not shown) [Compound B32.]
5,1000 to 10000 nM,NS(=O)(=O)c1ccccc1C(=O)NCC(O)CN1CCc2ccccc2C1 (stereo not shown) [Compound B33.]
6,< 100 nM,CN1CCCC1c1cccc(C(=O)NCC(O)CN2CCc3ccccc3C2)c1 (stereo not shown) [Compound B34.]
7,< 100 nM,O=C(NCC(O)CN1CCc2ccccc2C1)c1cccc(N2CCNCC2)c1 (stereo not shown) [Compound B35.]
8,< 100 nM,CN1CCN(c2cccc(C(=O)NCC(O)CN3CCc4ccccc4C3)c2)CC1 (stereo not shown) [Compound B36.]
9,< 100 nM,O=C(NCC(O)CN1CCc2ccccc2C1)c1cccc(C2CCNC2)c1 (stereo not shown) [Compound B37.]
10,< 100 nM,CN1CCC(c2cccc(C(=O)NCC(O)CN3CCc4ccccc4C3)c2)C1 (stereo not shown) [Compound B38.]
11,101 to 1000 nM,CNCCOc1cccc(C(=O)NCC(O)CN2CCc3ccccc3C2)c1 (stereo not shown) [Compound B39.]
12,< 100 nM,Cc1c(NC2CCOCC2)cccc1C(=O)NCC(O)CN1CCc2ccccc2C1 (stereo not shown) [Compound B40.]
13,< 100 nM,CCN(c1cccc(C(=O)NCC(O)CN2CCc3ccccc3C2)c1C)C1CCOCC1 (stereo not shown) [Compound B41.]
14,101 to 1000 nM,O=C(NCC(O)CN1CCc2ccccc2C1)c1cccc(C2CCCN2)c1 (stereo not shown) [Compound B42.]
15,101 to 1000 nM,O=C(NC[C@@H](O)CN1CCc2ccccc2C1)c1cccc(NC2CCOCC2)c1 [Compound B43.]
16,< 100 nM,O=C(NC[C@H](O)CN1CCc2ccccc2C1)c1cccc(NC2CCOCC2)c1 [Compound B44.]
17,< 100 nM,O=C(NCC(O)CN1CCc2ccccc2C1)c1cccc(NC2CCOC2)c1 (stereo not shown) [Compound B45.]
18,1000 to 10000 nM,O=C(NCC(O)CN1CCc2ccccc2C1)c1cccc(C(=O)N2CCOCC2)c1 (stereo not shown) [Compound B46.]
19,101 to 1000 nM,CCN(c1cccc(C(=O)NCC(O)CN2CCc3ccccc3C2)c1)C1CCOCC1 (stereo not shown) [Compound B47.]
20,101 to 1000 nM,O=C(NCC(O)CN1CCc2ccccc2C1)c1cccc(OC2CCOCC2)c1 (stereo not shown) [Compound B48.]
21,101 to 1000 nM,CN(c1cccc(C(=O)NCC(O)CN2CCc3ccccc3C2)c1)C1CCOCC1 (stereo not shown) [Compound B49.]
22,101 to 1000 nM,O=C(NCC(O)CN1CCc2ccccc2C1)c1cccc(NC2COC2)c1 (stereo not shown) [Compound B50.]
23,101 to 1000 nM,O=C(NCC(O)CN1CCc2ccccc2C1)c1cccc(CN2CCOCC2)c1 (stereo not shown) [Compound B51.]
24,101 to 1000 nM,CC(Nc1cccc(C(=O)NCC(O)CN2CCc3ccccc3C2)c1)C1CCOCC1 (stereo not shown) [Compound B52.]
25,101 to 1000 nM,CC1(C)CC(Nc2cccc(C(=O)NCC(O)CN3CCc4ccccc4C3)c2)CCO1 (stereo not shown) [Compound B53.]
26,< 100 nM,O=C(NCC(O)CN1CCc2ccccc2C1)c1cncc(NC2CCOCC2)c1 (stereo not shown) [Compound B54.]
27,< 100 nM,O=C(NCC(O)CN1CCc2ccccc2C1)c1cc(NC2CCOCC2)ccn1 (stereo not shown) [Compound B55.]
28,101 to 1000 nM,COc1cc(NC2CCOCC2)cc(C(=O)NCC(O)CN2CCc3ccccc3C2)c1 (stereo not shown) [Compound B56.]
29,101 to 1000 nM,O=C(NCC(O)CN1CCc2ccccc2C1)c1cc(NC2CCOCC2)ccc1F (stereo not shown) [Compound B57.]
30,< 100 nM,O=C(NCC(O)CN1CCc2ccccc2C1)c1ccc(OC2CCOCC2)cc1 (stereo not shown) [Compound B58.]

# Same assay, conditions: Table D-2; read-out: Biochemical IC50
row,IC50,Structure (SMILES)
1,1000 to 10000 nM,OC(COC1CCCN(c2ccccc2)C1)CN1CCc2ccccc2C1 (stereo not shown) [Compound D2]
2,101 to 1000 nM,OC(COc1ccc(OCC(O)CN2CCc3ccccc3C2)cc1)CN1CCc2ccccc2C1 (stereo not shown) [Compound D3]
3,101 to 1000 nM,OC(COc1cccc(CNC2CCCCC2)c1)CN1CCc2ccccc2C1 (stereo not shown) [Compound D4]
4,101 to 1000 nM,OC(COc1cccc(CNC2CCOCC2)c1)CN1CCc2ccccc2C1 (stereo not shown) [Compound D5]
5,101 to 1000 nM,OC(COc1cccc(CNc2cc[nH]n2)c1)CN1CCc2ccccc2C1 (stereo not shown) [Compound D6]

row,Structure (SMILES),IC50
1,OC(COc1ccccc1N1CCNCC1)CN1CCc2ccccc2C1 (stereo not shown) [Compound D7],10000 to 40000 nM
